The source of these data is US9695179B2, “Methods and compositions for inhibition of bromodomain-containing proteins” (CONVERGENE LLC, priority 2013, dated 2017).

One assay has as its target BRD4-BD1-BD2 (Homo sapiens (Human), UniProt O60885). The experiment in a line: AlphaScreening assay, recombinant BRD4-BD1-BD2 and BET Ligand. It counts as binding. The settings on record: 2.5 nM BRD4-BD1-BD2, BET Ligand. As for the experimental part:
Assays were performed by AlphaScreening technology using a recombinant BRD4-BD1-BD2 and BET Ligand. The AlphaScreening signal from the assay was correlated with the amount of BET Ligand binding to the bromodomain. The compounds were diluted in 50% DMSO and 1 μl of the dilution was added to a 10 μl reaction so that the final concentration of DMSO is 5% in all of reactions. All reactions were conducted at room temperature. The 9 μl reaction mixture in BRD Assay Buffer contains 2.5 nM BRD4-BD1-BD2 and the indicated amount of the inhibitor, and the reaction mixture were incubated for 30 min followed by additional 30 min incubation after the addition of 1 μl of BET Ligand (Table 2.3.1). For the negative control (blank), 1 μl of the assay buffer was added instead of the BET Ligand. After the 30 min incubation with the BET Ligand, 20 μl of BRD Detection buffer containing 10 μg/ml Glutathione acceptor beads and 10 μg/ml Streptavidin Donor beads was added and the final 30 μl mixture was incubated for 50 min in a dark room.
AlphaScreening signal was measured using EnSpire Alpha 2390 Multilabel reader (Perkin Elmer). Binding experiments were performed in duplicate at each concentration. The AlphaScreening data were analyzed using the computer software, Graphpad Prism. In the absence of the compound, the AlphaScreening signal (At) in each data set was defined as 100% activity. In the absence of the BET Ligand, the AlphaScreening signal (Ab) in each data set was defined as 0% activity. The percent activity in the presence of each compound was calculated according to the following equation: % activity=[(A−Ab)/(At−Ab)]×100, where A=the AlphaScreening signal in the presence of the compound, Ab=the AlphaScreening signal in the absence of the BET Ligand, and At=the AlphaScreening signal in the absence of the compound. The percent inhibition was calculated for certain compounds according to the following equation: % inhibition=100−% activity.

Assay [1] relates to MV4-11 acute myeloid leukemia cells. Description: In vitro cell viability (AlamarBlue), MV4-11. Particulars: Homo sapiens, MV4-11 cells, 72-hour incubation, read-out: In Vitro Cell Viability (IC50) MV4-11 Cells (AML). It counts as cell-based. As for the experimental part:
MV4-11 acute myeloid leukemia cells (American Type Culture Collection, Manassas, Va.) were added to 96-well clear bottom assay plates containing RPMI-1640 medium supplemented with 10% fetal bovine serum (FBS) at approximately 30,000 cells/well and incubated for 24 hours at 37° C. with 5% CO2 and 95% humidity. Control wells containing no cells were included to measure background fluorescence signal. Test compounds were dissolved at […] and diluted two-fold in DMSO to produce a working stock of compound solutions. Aliquots of the working stock solutions were subsequently diluted 100-fold in basal RPMI-1640 medium which was then further diluted 10-fold to the assay plate containing the cells to provide 10 test concentrations ranging from 0.04 μM-20 μM. Following a 72-hour incubation period, viability of the cells was determined by the AlamarBlue® assay (Life Technologies, Carlsbad, Calif.) following the manufacturer's protocol. Prior to generation of dose response curves, the data were background subtracted using the no cell control values (mean+/−standard deviation) and fluorescence values versus Log10 concentration of test compounds were plotted using GraphPad Prism. The resulting sigmoidal curve was then fit to the graph and IC50 values were calculated using a 4 parameter (4PL) algorithm using the following equation: 4(PL)F(x)=(A−D)/(1+(x/c)^B+D, where A=lower asymptote (baseline response), D=upper asymptote (maximum response), C=drug concentration that provokes a response halfway between A and D, B=slope of the curve. The results for selected compounds are set forth in Table 7.

The next assay addresses human BRD4 protein (Homo sapiens (Human), UniProt O60885). The experiment in a line: AlphaScreen assay, BRD4 (bromodomain 1 and 2) with histone H4 peptide. It counts as binding. The settings on record: for IC50: 25 nM BRD4, histone H4 peptide, 8 concentrations (10 nM-10 μM), read-out: BRD4-BD1-BD2 IC50; for BRD4-BD1-BD2 % Inhibition: test compounds assayed at 10 μM or 31.6 μM for screening. The method, then: The interactions between test compounds and BRD4 protein containing both bromodomain 1 and bromodomain 2 were measured with human BRD4 protein with N-terminal His tag (BPS Bioscience, San Diego, Calif.) using AlphaScreen® assay at room temperature. A 9 μl reaction mixture in BRD Assay Buffer (BPS Bioscience) containing 25 nM BRD4 and test compounds at various concentrations were incubated for 30 minutes followed by additional 30-minute incubation with 1 μl of 20 μM histone H4 peptide (residue 1-21) in the presence of 5% DMSO. Test compounds (see Table 4) were assayed at 10 μM or 31.6 μM for screening purpose, while 8 different concentrations (10 nM-10 μM) were used for IC50 measurements. After the incubation, 20 μl of BRD Detection Buffer (BPS Bioscience) containing 10 μg/ml Glutathione Acceptor beads and 10 μg/ml Streptavidin Donor beads (PerkinElmer, Waltham, Mass.) was added and the mixture was incubated for 50 minutes in darkroom. Binding measurements were taken in duplicate at each concentration using EnSpire® Alpha Multimode Plate Reader Model 2390 (PerkinElmer). The AlphaScreen data were analyzed using Graphpad Prism (La Jolla, Calif.). In the absence of the compound, the AlphaScreen signal (At) in each data set was defined as 100% activity. In the absence of the histone H4 peptide ligand, the AlphaScreen signal (Ab) in each data set was defined as 0% activity. The percent activity in the presence of each compound was calculated according to the following equation: % activity=[(A−Ab)/(At−Ab)]×100, where A=the AlphaScreen signal in the presence of compound; Ab=the AlphaScreen signal in the absence of the histone peptide ligand; and At=the AlphaScreen signal in the absence of the compound. The percent inhibition was calculated according to the following equation: % inhibition=100−% activity.
On the technique in general: In Alpha technology, singlet oxygen from a donor bead excites a nearby acceptor bead.

The term inhibition denotes how much of the control response was suppressed. By IC50 is commonly meant the concentration that gives 50% inhibition.

Consider `CCN(CC)C(=O)Sc1c(-c2ccccc2)c2cc(OC)c(-c3c(C)noc3C)cc2[nH]c1=O`, for which, at BRD4-BD1-BD2, the inhibition at 10 µM came out at 65%.
Same read-out and setting: in the case of `Cc1noc(C)c1-c1ccc2c(c1)c(-c1ccccc1)cc(=O)n2Cc1ccccc1` it was 74%; in that of `Cc1noc(C)c1-c1ccc2[nH]c(=O)cc(-c3ccccc3)c2c1`, 82%; in that of `Cc1noc(C)c1-c1ccc2c(-c3ccccc3)cc(=O)[nH]c2c1`, 85%.
In the case of `Cc1noc(C)c1-c1ccc2[nH]c(=O)cc(NCc3ccccc3)c2c1`, the inhibition at 10 µM at BRD4-BD1-BD2 is 99%.
On to `O=C(/C=C/c1ccccc1)c1c(-c2ccccc2)c2cc(Cl)ccc2[nH]c1=O` [Compound 1], for which the IC50 is 110 nM in assay [1] and 2430 nM at human BRD4 protein. In addition, the “BRD4-BD1-BD2 % Inhibition” value on human BRD4 protein is 87%.
On to `O=C(/C=C/c1cccs1)c1c(-c2ccccc2)c2cc(Cl)ccc2[nH]c1=O` [Compound 7, 6-chloro-4-phenyl-3-(3-(thiophen-2-yl)acryloyl)quinolin-2(1H)-one], for which, in assay [1], the IC50 was 2300 nM.
On the same count and under the same terms, in the case of `CN(C)c1ccc(/C=C/C(=O)c2c(-c3ccccc3)c3cc(Cl)ccc3[nH]c2=O)cc1` [Compound 8, 6-chloro-3-(3-(4-(dimethylamino)phenyl)acryloyl)-4-phenylquinolin-2(1H)-one] it was 10300 nM; in that of `O=C(/C=C/c1ccc2c(c1)OCCO2)c1c(-c2ccccc2)c2cc(Br)ccc2[nH]c1=O` [Compound 9, 6-bromo-3-(3-(2,3-dihydrobenzo[b][1,4]dioxin-6-yl)acryloyl)-4-phenylquinolin-2(1H)-one], 5520 nM.
On the same count and under the same terms, next, `O=C(/C=C/c1c(F)cccc1Cl)c1c(-c2ccncc2)c2cc(Cl)ccc2[nH]c1=O` [Compound 15, 6-chloro-3-(3-(2-chloro-6-fluorophenyl)acryloyl)-4-(pyridin-4-yl)quinolin-2(1H)-one]: 1180 nM; `Cc1cncc(F)c1/C=C/C(=O)c1c(-c2cccnc2)c2cc(Cl)ccc2[nH]c1=O` [Compound 16, 6-chloro-3-(3-(3-fluoro-5-methylpyridin-4-yl)acryloyl)-4-(pyridin-3-yl)quinolin-2(1H)-one]: 400 nM; `Cc1nc(-c2c(N3CCCCC3)c3cc(Cl)ccc3[nH]c2=O)co1` [Compound 21]: 8600 nM.
Consider `Cc1nc(-c2c(N3CCCC3)c3cc(Cl)ccc3[nH]c2=O)co1` [Compound 22], for which the IC50 in assay [1] worked out at 1800 nM.
The same measure, in the same setting: next, `O=C(/C=C/c1ccccc1)c1c(-c2ccccc2)c2cc(Br)ccc2[nH]c1=O` [Compound 81]: 3000 nM.
In the case of `COc1ccc(Cn2c(=O)c(-c3coc(C)n3)c(OS(=O)(=O)c3ccc(C)cc3)c3cc(Cl)ccc32)cc1` [Compound 83], at human BRD4 protein, the IC50 amounted to 442 nM and the “BRD4-BD1-BD2 % Inhibition” value came to 99%.
For the compound `COc1ccc(Cn2c(=O)c(-c3coc(C)n3)c(OS(=O)(=O)c3ccccc3)c3cc(Cl)ccc32)cc1` [Compound 84], at human BRD4 protein, the IC50 worked out at 372 nM and the “BRD4-BD1-BD2 % Inhibition” value is given as 98%.
For `COc1ccc(Cn2c(=O)c(-c3coc(C)n3)c(OS(=O)(=O)c3ccc(F)cc3)c3cc(Cl)ccc32)cc1` [Compound 85], in that order: 876 nM and 99%.
In the same order, the values of `COc1ccc(Cn2c(=O)c(-c3coc(C)n3)c(OS(=O)(=O)c3ccc(Cl)cc3)c3cc(Cl)ccc32)cc1` [Compound 86] are 670 nM and 99%.
For `COc1ccc(Cn2c(=O)c(-c3coc(C)n3)c(OS(=O)(=O)c3ccc4ccccc4c3)c3cc(Cl)ccc32)cc1` [Compound 87], in that order: 139 nM and 99%.
Take `COc1ccc(Cn2c(=O)c(-c3coc(C)n3)c(OS(=O)(=O)c3cccc4cccnc34)c3cc(Cl)ccc32)cc1` [Compound 88]: at human BRD4 protein, the 50% inhibitory concentration (IC50) is 864 nM and the “BRD4-BD1-BD2 % Inhibition” value was determined as 98%.
For `COc1ccc(Cn2c(=O)c(-c3coc(C)n3)c(OS(=O)(=O)c3ccc(-c4ccccc4)cc3)c3cc(Cl)ccc32)cc1` [Compound 89], in that order: 586 nM and 99%.
For the compound `Cc1noc(C)c1-c1ccc2[nH]c(=O)c(C(=O)/C=C/c3ccccc3)c(-c3cccnc3)c2c1` [Compound 90], at human BRD4 protein, the IC50 amounted to 11200 nM and the “BRD4-BD1-BD2 % Inhibition” value came out at 62%.
As for `C=CCn1c(Sc2c(-c3ccccc3)c3cc(Cl)ccc3[nH]c2=O)nnc1-c1cccs1` [Compound 97], on human BRD4 protein, the IC50 came to 5800 nM and the “BRD4-BD1-BD2 % Inhibition” value came out at 59%.
For `COc1ccc(-c2cc(=O)[nH]c(Sc3c(-c4ccccc4)c4cc(Cl)ccc4[nH]c3=O)n2)cc1` [Compound 98], in that order: 6700 nM and 64%.
For `O=c1[nH]c2ccc(Cl)cc2c(-c2ccccc2)c1SC(=S)N1CCOCC1` [Compound 121], in that order: 7300 nM and 68%.
For `CCN(CC)C(=S)Sc1c(-c2ccccc2)c2cc(Cl)ccc2[nH]c1=O` [Compound 122], in that order: 26800 nM and 65%.
Take `O=c1[nH]c2cc(Cl)ccc2c(-c2ccccc2)c1Sc1nc2ccccc2s1` [Compound 124]: on human BRD4 protein, the IC50 stood at 17300 nM and the “BRD4-BD1-BD2 % Inhibition” value came to 50%.
For `CSc1nsc(Sc2c(-c3ccccc3)c3ccc(Cl)cc3[nH]c2=O)n1` [Compound 126], in that order: 23600 nM and 50%.
As to `CCN(CC)CCCNC(=O)C1CCCN(c2c(-c3ccccc3)c3cc(Cl)ccc3[nH]c2=O)C1` (stereo not drawn) [Compound 127], the IC50 in assay [1] came out at 5450 nM.
For `CNC(=S)N1N=C(c2c(-c3ccccc3)c3cc(Cl)ccc3[nH]c2=O)CC1c1ccccc1` (stereo not drawn) [Compound 128], on human BRD4 protein, the IC50 amounted to 16300 nM and the “BRD4-BD1-BD2 % Inhibition” value was determined as 64%.
For `Cc1ccc(-c2nnc(Sc3c(-c4ccccc4)c4cc(Cl)ccc4[nH]c3=O)n2N)cc1` [Compound 132], in that order: 3700 nM and 92%.
As for `COc1ccc(OC)c(NCc2c(OC)ccc3ccccc23)c1` [Compound 143], the “BRD4-BD1-BD2 % Inhibition” value on human BRD4 protein is reported as 99%.
`O=c1[nH]c2ccc(Br)cc2c(-c2ccccc2)c1-c1cc(-c2ccccc2)[nH]c(=S)n1` [Compound 144]: at human BRD4 protein, the IC50 worked out at 49 nM and the “BRD4-BD1-BD2 % Inhibition” value is >90%.
For `O=c1[nH]c2ccc(Cl)cc2c(-c2ccccc2)c1-c1cc(-c2ccccc2)[nH]c(=S)n1` [Compound 145], in that order: 1440 nM and 72%.
